# Key:
# Aurora-B(h) = molecular target: T1, Aurora-B(h) (Homo sapiens, UniProt Q96GD4); assay: Kinase Profiler Service Assay, Aurora-B; type: biochemical; details: at 100 nM
# T1 construct: purchased Millipore (Kinase Profiler Service)
# Method: (§1) Selected kinase binding affinities were determined using Kinase Profiler™ Service Assay Protocols (Millipore, V53.0).
# MV4-11 cells = assay: Human MV4-11 biphenotypic B myelomonocytic leukemia cell survival assay; type: cell-based; details: cell survival at 72h, Cell Titer-Glo
# Method: Human MV4-11 Biphenotypic B Myelomonocytic Leukemia Cell Survival Assay
# Biphenotypic B myelomonocytic leukemia MV4-11 cells (ATCC CRL-9591) were cultured in suspension at 37° C., 5% CO2 in complete medium (RPMI supplemented with 10% FBS, 1% penicillin/streptomycin). One day prior to treatment, cells per seeded in 96-well plates at 8000 cells/well in complete medium. The following day, triplicate wells were treated with compound curves of 100, 1000 or 10,000 nM starting concentration according to compound potency. Cell survival was measured 72h later by Cell Titer-Glo Luminescent Assay (Promega). Luminescence was read using a Tecan Infinite F200 microplate reader. EC50 values (50% survival in the presence of compound as compared to vehicle treated controls) were calculated from non-linear fit dose response compound curves using CambridgeSoft BioAssay software (Perkin Elmer).
# cFMS(h) = molecular target: T2, cFMS(h) (Homo sapiens, UniProt P07333); assay: Kinase Profiler Service Assay, cFMS; type: biochemical; details: at 100 nM
# T2 construct: purchased Millipore (Kinase Profiler Service)
# Method: as §1
# Tie2 = molecular target: T3, Tie2 (Homo sapiens, UniProt Q02763); assay: Kinase Profiler Service Assay, Tie2; type: biochemical; details: at 100 nM
# T3 construct: purchased Millipore (Kinase Profiler Service)
# Method: as §1
# [1] = system: M-NFS-60 M-CSF-dependent myeloid leukemia cells; assay: Murine M-CSF-dependent M-NFS-60 cell survival assay; type: cell-based; details: Mus musculus; cell survival at 72 hours, 20 ng/ml M-CSF, Cell Titer-Glo
# Method: Cellular Assays: Murine M-CSF-Dependent M-NFS-60 Cell Survival Assay
# Murine M-NFS-60 M-CSF-dependent myeloid leukemia cells were purchased from ATCC (CRL-1838). Cells were routinely cultured at 37° C., 5% CO2 in complete medium (RPMI supplemented with 10% FBS, 1% penicillin/streptomycin, 50 uM beta mercaptoethanol) containing 30 ng/ml recombinant murine M-CSF (Peprotech 315-02). For survival assays, cells were transferred to depleted medium (complete medium depleted of M-CSF) for 24 hours prior to initiation of each experiment. M-CSF-starved cells were harvested and re-suspended in complete medium containing 20 ng/ml M-CSF. Cells were seeded at 25,000 cells/well in 96-well plates and incubated for 1 hour at 37° C., 5% CO2. Cells were treated with 1 uM or 10 uM compound curves in triplicate and cell survival was measured 72 hours later by Cell Titer-Glo Luminescent Assay (Promega). Luminescence was read using a Tecan Infinite F200 microplate reader. EC50 values (50% survival in the presence of compound as compared to vehicle treated controls) were calculated from non-linear fit dose response compound curves using GraphPad Prism Software.
# [2] = molecular target: T4, recombinant human colony stimulating factor 1 receptor (FMS) (Homo sapiens, UniProt P07333); assay: Biochemical cFMS (CSF1R) fluorescence polarization kinase assay; details: 10 μM ATP, 100 μM substrate, 60 minutes
# T4 construct: containing the catalytic domain (amino acids 538-910); His tag; purchased Invitrogen; host or cells: insect cells
# T4 sequence (P07333 538-910): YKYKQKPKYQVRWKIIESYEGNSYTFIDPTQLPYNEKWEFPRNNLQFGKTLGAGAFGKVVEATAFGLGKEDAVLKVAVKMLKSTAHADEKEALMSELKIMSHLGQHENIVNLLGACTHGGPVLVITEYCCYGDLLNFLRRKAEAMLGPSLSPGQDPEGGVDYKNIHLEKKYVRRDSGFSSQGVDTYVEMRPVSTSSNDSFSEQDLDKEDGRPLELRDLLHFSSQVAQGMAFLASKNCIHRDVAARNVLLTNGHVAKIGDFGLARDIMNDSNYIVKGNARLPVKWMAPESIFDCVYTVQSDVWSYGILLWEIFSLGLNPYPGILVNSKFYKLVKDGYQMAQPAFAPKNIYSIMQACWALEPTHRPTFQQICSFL
# Method: Biochemical cFMS (CSF1R) Assay:
# Fluorescence polarization-based kinase biochemical assays were performed in 384 well-plate format using histidine tagged recombinant human colony stimulating factor 1 receptor (FMS) supplied from Invitrogen™ (containing the catalytic domain (amino acids 538-910), expressed in insect cells and activated in vitro via auto phosphorylation) and a modified protocol of the KinEASE™ FP Fluorescein Green Assay supplied from Millipore™.
# Kinase reactions were performed in 384 well plate format at room temperature for 60 minutes in presence of 100 μM substrate, 10 μM ATP and variable test article concentrations. The reaction was stopped with EDTA/KinEASE™ detection reagents and the polarization measured on a Tecan 500 instrument. From the dose-response curve obtained, the IC50 was estimated using Graph pad Prisms® using a non linear fit curve.
# PDGFR-b(h) = molecular target: T5, PDGFR-b(h) (Homo sapiens, UniProt P09619); assay: Kinase Profiler Service Assay, PDGFR-b; type: biochemical; details: at 100 nM
# T5 construct: purchased Millipore (Kinase Profiler Service)
# Method: as §1
# KDR(h) = molecular target: T6, KDR(h) (Homo sapiens, UniProt P35968); assay: Kinase Profiler Service Assay, KDR; type: biochemical; details: at 100 nM
# T6 construct: purchased Millipore (Kinase Profiler Service)
# Method: as §1
# FLT4 = molecular target: T7, FLT4 (Homo sapiens, UniProt P35916); assay: Kinase Profiler Service Assay, FLT4; type: biochemical; details: at 100 nM
# T7 construct: purchased Millipore (Kinase Profiler Service)
# Method: as §1
# Flt3 (h) = molecular target: T8, Flt3 (h) (Homo sapiens, UniProt P36888); assay: Kinase Profiler Service Assay, Flt3; type: biochemical; details: at 100 nM
# T8 construct: purchased Millipore (Kinase Profiler Service)
# T8 sequence (P36888 27-993): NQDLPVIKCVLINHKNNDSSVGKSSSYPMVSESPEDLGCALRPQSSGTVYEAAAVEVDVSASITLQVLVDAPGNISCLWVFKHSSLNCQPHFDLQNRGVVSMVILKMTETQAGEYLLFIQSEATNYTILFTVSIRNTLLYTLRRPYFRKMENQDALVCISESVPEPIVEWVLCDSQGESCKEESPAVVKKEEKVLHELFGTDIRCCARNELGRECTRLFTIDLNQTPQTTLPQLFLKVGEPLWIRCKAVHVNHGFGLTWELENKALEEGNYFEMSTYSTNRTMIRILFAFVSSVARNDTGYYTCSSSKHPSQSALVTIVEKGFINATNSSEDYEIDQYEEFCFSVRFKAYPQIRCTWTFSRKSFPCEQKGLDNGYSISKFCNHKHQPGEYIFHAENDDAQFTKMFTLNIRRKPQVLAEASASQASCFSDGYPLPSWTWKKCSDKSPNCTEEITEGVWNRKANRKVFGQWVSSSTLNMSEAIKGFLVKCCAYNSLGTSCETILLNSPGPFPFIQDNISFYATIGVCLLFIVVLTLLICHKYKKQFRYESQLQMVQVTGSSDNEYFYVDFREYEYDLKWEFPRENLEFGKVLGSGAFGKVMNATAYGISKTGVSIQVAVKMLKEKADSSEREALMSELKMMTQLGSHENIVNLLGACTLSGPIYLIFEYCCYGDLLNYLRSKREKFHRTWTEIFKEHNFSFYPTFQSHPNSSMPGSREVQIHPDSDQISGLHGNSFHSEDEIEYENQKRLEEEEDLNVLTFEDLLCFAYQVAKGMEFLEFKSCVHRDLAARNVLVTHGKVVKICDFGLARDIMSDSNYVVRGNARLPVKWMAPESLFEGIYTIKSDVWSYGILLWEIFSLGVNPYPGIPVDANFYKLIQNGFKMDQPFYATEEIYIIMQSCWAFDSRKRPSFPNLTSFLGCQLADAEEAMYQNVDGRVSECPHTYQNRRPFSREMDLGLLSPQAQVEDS
# Method: as §1
# FGFR1 = molecular target: T9, FGFR1 (Homo sapiens, UniProt P11362); assay: Kinase Profiler Service Assay, FGFR1; type: biochemical; details: at 100 nM
# T9 construct: purchased Millipore (Kinase Profiler Service)
# Method: as §1
# 216 other kinases = assay: Kinase Profiler Service Assay, selectivity panel; type: biochemical; details: at 300 nM
# Method: as §1
# EphA2 = molecular target: T10, EphA2 (Homo sapiens, UniProt P29317); assay: Kinase Profiler Service Assay, EphA2; type: biochemical; details: at 100 nM
# T10 construct: purchased Millipore (Kinase Profiler Service)
# Method: as §1
# T2 sequence (P07333 20-972): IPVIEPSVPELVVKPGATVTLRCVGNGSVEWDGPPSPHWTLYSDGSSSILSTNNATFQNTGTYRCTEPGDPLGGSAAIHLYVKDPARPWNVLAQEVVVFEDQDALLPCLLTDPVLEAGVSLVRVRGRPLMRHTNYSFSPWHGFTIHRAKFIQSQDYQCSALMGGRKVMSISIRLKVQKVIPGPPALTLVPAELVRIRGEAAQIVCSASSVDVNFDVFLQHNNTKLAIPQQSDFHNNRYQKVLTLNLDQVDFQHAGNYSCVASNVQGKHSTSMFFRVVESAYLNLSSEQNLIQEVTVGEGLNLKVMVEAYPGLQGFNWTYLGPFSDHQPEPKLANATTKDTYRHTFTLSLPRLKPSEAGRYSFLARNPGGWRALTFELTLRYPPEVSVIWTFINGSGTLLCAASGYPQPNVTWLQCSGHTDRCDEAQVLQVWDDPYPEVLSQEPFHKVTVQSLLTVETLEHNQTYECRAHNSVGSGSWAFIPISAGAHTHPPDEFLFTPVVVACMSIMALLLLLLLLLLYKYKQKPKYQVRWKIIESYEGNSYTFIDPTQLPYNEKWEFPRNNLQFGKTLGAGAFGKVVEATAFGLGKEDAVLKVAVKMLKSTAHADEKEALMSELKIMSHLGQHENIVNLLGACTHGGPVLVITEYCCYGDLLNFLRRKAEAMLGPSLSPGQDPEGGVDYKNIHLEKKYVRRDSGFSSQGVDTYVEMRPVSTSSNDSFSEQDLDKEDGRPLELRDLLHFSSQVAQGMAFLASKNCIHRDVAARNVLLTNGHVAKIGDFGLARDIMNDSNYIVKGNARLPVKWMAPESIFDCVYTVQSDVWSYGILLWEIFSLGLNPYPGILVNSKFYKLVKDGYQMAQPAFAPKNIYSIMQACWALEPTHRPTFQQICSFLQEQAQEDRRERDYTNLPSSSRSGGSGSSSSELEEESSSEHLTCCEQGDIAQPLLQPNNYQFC
# T6 sequence (P35968 20-1356): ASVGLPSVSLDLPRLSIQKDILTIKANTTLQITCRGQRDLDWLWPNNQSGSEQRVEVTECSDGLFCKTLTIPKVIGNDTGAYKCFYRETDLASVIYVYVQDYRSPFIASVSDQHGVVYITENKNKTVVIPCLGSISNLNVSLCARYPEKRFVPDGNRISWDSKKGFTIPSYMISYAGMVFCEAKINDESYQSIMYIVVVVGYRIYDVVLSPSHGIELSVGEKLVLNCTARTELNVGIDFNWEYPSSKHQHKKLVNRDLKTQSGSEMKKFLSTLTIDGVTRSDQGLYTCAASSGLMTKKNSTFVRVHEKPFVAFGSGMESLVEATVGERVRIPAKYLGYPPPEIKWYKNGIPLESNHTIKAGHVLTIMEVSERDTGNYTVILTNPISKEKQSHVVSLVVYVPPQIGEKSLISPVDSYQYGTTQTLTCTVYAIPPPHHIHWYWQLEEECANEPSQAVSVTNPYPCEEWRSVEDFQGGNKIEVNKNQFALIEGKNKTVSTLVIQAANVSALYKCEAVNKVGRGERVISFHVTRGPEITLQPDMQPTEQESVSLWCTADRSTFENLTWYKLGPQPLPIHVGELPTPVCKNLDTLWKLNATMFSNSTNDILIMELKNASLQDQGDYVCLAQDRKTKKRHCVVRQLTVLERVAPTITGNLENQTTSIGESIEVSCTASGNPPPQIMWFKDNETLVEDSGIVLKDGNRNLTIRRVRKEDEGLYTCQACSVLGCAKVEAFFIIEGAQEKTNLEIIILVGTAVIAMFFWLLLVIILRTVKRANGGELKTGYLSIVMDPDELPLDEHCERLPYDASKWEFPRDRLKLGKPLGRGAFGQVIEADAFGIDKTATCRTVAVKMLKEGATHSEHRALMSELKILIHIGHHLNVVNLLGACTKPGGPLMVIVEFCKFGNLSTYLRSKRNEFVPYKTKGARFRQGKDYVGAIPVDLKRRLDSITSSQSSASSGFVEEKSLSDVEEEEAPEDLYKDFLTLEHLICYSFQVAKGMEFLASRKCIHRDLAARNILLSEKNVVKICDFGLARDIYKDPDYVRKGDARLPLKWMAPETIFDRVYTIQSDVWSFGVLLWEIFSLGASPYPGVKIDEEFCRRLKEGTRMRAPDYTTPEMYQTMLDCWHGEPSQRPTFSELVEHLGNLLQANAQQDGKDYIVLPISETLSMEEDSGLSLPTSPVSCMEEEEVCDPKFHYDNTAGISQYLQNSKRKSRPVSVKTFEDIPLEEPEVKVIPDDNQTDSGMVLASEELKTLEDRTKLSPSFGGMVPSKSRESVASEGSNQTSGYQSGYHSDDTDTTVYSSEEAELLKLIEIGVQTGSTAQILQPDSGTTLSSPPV
# T9 sequence (P11362 22-822): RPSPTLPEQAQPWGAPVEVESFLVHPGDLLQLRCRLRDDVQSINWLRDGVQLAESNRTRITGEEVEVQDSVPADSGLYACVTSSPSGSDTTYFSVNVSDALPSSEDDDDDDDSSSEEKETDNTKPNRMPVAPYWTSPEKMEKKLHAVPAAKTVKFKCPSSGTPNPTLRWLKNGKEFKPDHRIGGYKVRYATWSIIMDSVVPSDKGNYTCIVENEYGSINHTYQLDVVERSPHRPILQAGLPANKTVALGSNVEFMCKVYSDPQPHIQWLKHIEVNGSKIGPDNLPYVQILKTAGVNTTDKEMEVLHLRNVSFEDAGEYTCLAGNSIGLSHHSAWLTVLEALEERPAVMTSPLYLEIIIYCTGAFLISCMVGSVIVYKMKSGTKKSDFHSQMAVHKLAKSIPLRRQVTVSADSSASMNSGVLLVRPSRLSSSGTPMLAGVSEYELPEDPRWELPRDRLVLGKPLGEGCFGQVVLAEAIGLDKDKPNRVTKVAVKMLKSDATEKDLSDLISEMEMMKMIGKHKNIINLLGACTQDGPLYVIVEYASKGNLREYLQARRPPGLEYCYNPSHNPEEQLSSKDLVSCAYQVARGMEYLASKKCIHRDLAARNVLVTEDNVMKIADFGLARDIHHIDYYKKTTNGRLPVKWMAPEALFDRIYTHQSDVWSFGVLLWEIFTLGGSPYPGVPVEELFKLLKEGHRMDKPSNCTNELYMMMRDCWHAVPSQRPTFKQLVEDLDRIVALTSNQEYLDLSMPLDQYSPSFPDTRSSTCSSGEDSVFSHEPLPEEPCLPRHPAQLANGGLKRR
# T10 sequence (P29317 24-976): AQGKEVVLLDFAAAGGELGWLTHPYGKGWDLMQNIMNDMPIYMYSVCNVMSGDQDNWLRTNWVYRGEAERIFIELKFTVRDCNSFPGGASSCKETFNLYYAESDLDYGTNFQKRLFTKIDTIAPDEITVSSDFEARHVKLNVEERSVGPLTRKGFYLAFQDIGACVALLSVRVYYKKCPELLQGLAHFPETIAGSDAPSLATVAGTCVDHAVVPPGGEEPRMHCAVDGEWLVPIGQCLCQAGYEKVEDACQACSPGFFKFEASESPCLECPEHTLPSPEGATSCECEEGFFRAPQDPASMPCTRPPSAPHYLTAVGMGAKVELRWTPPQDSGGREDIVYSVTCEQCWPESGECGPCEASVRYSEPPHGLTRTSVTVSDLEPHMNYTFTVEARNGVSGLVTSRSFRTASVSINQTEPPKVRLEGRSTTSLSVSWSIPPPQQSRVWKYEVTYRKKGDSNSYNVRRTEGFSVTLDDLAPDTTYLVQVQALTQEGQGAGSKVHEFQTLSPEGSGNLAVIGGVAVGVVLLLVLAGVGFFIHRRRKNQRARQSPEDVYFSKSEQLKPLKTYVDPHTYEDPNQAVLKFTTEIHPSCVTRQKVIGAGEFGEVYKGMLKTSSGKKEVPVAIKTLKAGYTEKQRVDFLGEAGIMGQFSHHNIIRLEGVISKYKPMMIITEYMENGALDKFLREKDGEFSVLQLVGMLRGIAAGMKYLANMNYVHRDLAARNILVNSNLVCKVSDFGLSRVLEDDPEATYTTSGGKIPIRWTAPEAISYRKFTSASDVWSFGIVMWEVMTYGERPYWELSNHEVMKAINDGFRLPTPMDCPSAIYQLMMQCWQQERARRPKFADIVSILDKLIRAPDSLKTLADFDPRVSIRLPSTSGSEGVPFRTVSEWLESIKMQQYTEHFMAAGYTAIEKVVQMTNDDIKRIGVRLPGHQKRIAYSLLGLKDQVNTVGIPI
# T1 sequence (Q96GD4 whole entry): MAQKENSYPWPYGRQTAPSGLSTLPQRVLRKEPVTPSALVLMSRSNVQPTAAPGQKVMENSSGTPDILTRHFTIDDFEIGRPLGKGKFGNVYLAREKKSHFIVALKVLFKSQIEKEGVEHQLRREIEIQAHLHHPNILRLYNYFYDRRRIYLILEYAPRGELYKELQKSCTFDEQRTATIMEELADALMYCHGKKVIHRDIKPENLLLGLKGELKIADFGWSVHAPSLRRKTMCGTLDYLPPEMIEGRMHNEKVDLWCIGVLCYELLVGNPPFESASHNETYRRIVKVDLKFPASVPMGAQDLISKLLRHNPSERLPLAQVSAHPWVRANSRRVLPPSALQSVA
Compound,inhibition of Aurora-B (Aurora-B(h)),EC50 (MV4-11 cells) [µM],inhibition of cFMS (cFMS(h)),inhibition of Tie2 (Tie2),EC50 [1] [µM],IC50 [2] [µM],inhibition of PDGFR-b (PDGFR-b(h)),inhibition of KDR (KDR(h)),inhibition of FLT4 (FLT4),inhibition of Flt3 (Flt3 (h)),inhibition of FGFR1 (FGFR1),inhibition of 216 other kinases (selectivity) (216 other kinases) [%],inhibition of EphA2 (EphA2)
Nc1ncnc2c3c(n(-c4ccc(NC(=O)Nc5ccc(F)cc5)cc4)c12)CCC3 [Compound 14],inhibits,< 0.1,inhibits,inhibits,< 0.1,0.1 to 1,inhibits,inhibits,inhibits,inhibits,inhibits,–,–
Nc1ncnc2c3c(n(-c4ccc(NC(=O)Nc5cc(C(F)(F)F)ccc5F)cc4)c12)CCC3 [Compound 44],–,< 0.1,inhibits,–,0.1 to 1,0.1 to 1,–,inhibits,–,inhibits,inhibits,≤ 20,inhibits

# Reference: patent US9284318B2, “Protein kinase inhibitors” (Pharmascience, Inc., priority 2011, dated 2016)
